Test results reported in PMC5218480 (PLoS ONE, 2017).

Tested on: MV-4-11 cells
Experiment: Gene expression microarray analysis (Affymetrix PrimeView) and GSEA
Type: cell-based, human
Design: RFU PODN (11730768_x_at) / Fold change /veh PODN (11730768_x_at) / RFU LINC00158 (11744669_a_at) / Fold change /veh LINC00158 (11744669_a_at) / RFU DUSP10 (11751237_a_at) / Fold change /veh DUSP10 (11751237_a_at) / RFU ID3 (11757404_x_at) / Fold change /veh ID3 (11757404_x_at) / RFU PLEKHG5 (11737974_s_at) / Fold change /veh PLEKHG5 (11737974_s_at) / RFU LRRC4B (11730491_at) / Fold change /veh LRRC4B (11730491_at) / RFU GIMAP4 (11747438_a_at) / Fold change /veh GIMAP4 (11747438_a_at) / RFU KRT8 (11758183_x_at) / Fold change /veh KRT8 (11758183_x_at) / RFU CNN1 (11734310_a_at) / Fold change /veh CNN1 (11734310_a_at) / RFU VPS37D (11726825_at) / Fold change /veh VPS37D (11726825_at) / RFU C10orf10 (11716522_x_at) / Fold change /veh C10orf10 (11716522_x_at) / RFU KIR2DL2 /// KIR2DL4 /// KIR2DL5A /// KIR2DL5B /// KIR2DS1 /// KIR2DS2 /// KIR2DS3 /// KIR2DS4 /// KIR3DL3 /// KIR3DL3 /// KIR3DS1 (11738374_at) / Fold change /veh KIR2DL2 /// KIR2DL4 /// KIR2DL5A /// KIR2DL5B /// KIR2DS1 /// KIR2DS2 /// KIR2DS3 /// KIR2DS4 /// KIR3DL3 /// KIR3DL3 /// KIR3DS1 (11738374_at) / RFU C1QL1 (11718748_at) / Fold change /veh C1QL1 (11718748_at) / RFU TMPRSS4 (11747572_a_at) / Fold change /veh TMPRSS4 (11747572_a_at) / RFU HAMP (11756126_x_at) / Fold change /veh HAMP (11756126_x_at) / RFU RNFT2 (11725882_a_at) / Fold change /veh RNFT2 (11725882_a_at) / RFU NR4A2 (11747474_a_at) / Fold change /veh NR4A2 (11747474_a_at) / RFU ABCC12 (11746883_a_at) / Fold change /veh ABCC12 (11746883_a_at) / RFU TMEM136 (11760407_x_at) / Fold change /veh TMEM136 (11760407_x_at) / RFU CLDN22 /// WWC2 (11732394_at) / Fold change /veh CLDN22 /// WWC2 (11732394_at) / RFU HLA-DPB1 (11760878_x_at) / Fold change /veh HLA-DPB1 (11760878_x_at) / RFU SPINT1 (11716480_a_at) / Fold change /veh SPINT1 (11716480_a_at) / RFU GAP43 (11754022_s_at) / Fold change /veh GAP43 (11754022_s_at) / RFU A4GNT (11735810_at) / Fold change /veh A4GNT (11735810_at) / RFU PRB3 (11715151_x_at) / Fold change /veh PRB3 (11715151_x_at) / RFU TUBB4B (11761932_at) / Fold change /veh TUBB4B (11761932_at) / RFU CAPN14 (11732068_a_at) / Fold change /veh CAPN14 (11732068_a_at) / RFU TMCC2 (11721928_a_at) / Fold change /veh TMCC2 (11721928_a_at) / RFU IRGQ (11745062_a_at) / Fold change /veh IRGQ (11745062_a_at) / RFU FAM174B (11720279_a_at) / Fold change /veh FAM174B (11720279_a_at) / RFU TMPRSS4 (11748680_a_at) / Fold change /veh TMPRSS4 (11748680_a_at) / RFU FAM212B (11763350_a_at) / Fold change /veh FAM212B (11763350_a_at) / RFU PLEKHG5 (11743358_a_at) / Fold change /veh PLEKHG5 (11743358_a_at) / RFU ZSCAN30 (11745921_a_at) / Fold change /veh ZSCAN30 (11745921_a_at) / RFU CMKLR1 (11741424_a_at) / Fold change /veh CMKLR1 (11741424_a_at) / RFU LOC101060620 /// MAPK8IP1 (11723275_at) / Fold change /veh LOC101060620 /// MAPK8IP1 (11723275_at) / RFU SPTSSB (11747773_x_at) / Fold change /veh SPTSSB (11747773_x_at) / RFU PRSS12 (11739890_at) / Fold change /veh PRSS12 (11739890_at) / RFU BIN1 (11741810_x_at) / Fold change /veh BIN1 (11741810_x_at) / RFU WNT11 (11732464_a_at) / Fold change /veh WNT11 (11732464_a_at) / RFU C10orf10 (11716521_a_at) / Fold change /veh C10orf10 (11716521_a_at) / RFU C5orf56 (11738089_at) / Fold change /veh C5orf56 (11738089_at) / RFU CYB561 (11721691_x_at) / Fold change /veh CYB561 (11721691_x_at) / RFU ANKRD19P (11752326_a_at) / Fold change /veh ANKRD19P (11752326_a_at) / RFU OR2T12 /// OR2T33 /// OR2T8 (11738714_s_at) / Fold change /veh OR2T12 /// OR2T33 /// OR2T8 (11738714_s_at) / RFU VCAN (11748164_a_at) / Fold change /veh VCAN (11748164_a_at) / RFU JSRP1 (11732532_at) / Fold change /veh JSRP1 (11732532_at) / RFU KRTAP10-11 (11738290_x_at) / Fold change /veh KRTAP10-11 (11738290_x_at) / RFU MYO3A (11730013_a_at) / Fold change /veh MYO3A (11730013_a_at) / RFU EBF3 (11725865_a_at) / Fold change /veh EBF3 (11725865_a_at) / RFU CAMK2N1 (11719241_x_at) / Fold change /veh CAMK2N1 (11719241_x_at) / RFU C5orf56 (11738088_a_at) / Fold change /veh C5orf56 (11738088_a_at) / RFU OLFML3 (11715873_a_at) / Fold change /veh OLFML3 (11715873_a_at) / RFU LOC100653217 /// NTM (11731650_a_at) / Fold change /veh LOC100653217 /// NTM (11731650_a_at) / RFU MAPK11 (11762145_a_at) / Fold change /veh MAPK11 (11762145_a_at) / RFU FIZ1 (11724087_x_at) / Fold change /veh FIZ1 (11724087_x_at) / RFU OASL (11726364_x_at) / Fold change /veh OASL (11726364_x_at) / RFU SOX15 (11748057_x_at) / Fold change /veh SOX15 (11748057_x_at) / RFU CD79A (11719716_a_at) / Fold change /veh CD79A (11719716_a_at) / RFU HIST1H1D (11736915_at) / Fold change /veh HIST1H1D (11736915_at) / RFU CASKIN2 (11723855_a_at) / Fold change /veh CASKIN2 (11723855_a_at) / RFU LOC730098 (11760151_x_at) / Fold change /veh LOC730098 (11760151_x_at) / RFU OR4N2 (11742367_at) / Fold change /veh OR4N2 (11742367_at) / RFU PRRT2 (11749266_a_at) / Fold change /veh PRRT2 (11749266_a_at) / RFU SNX32 (11753110_a_at) / Fold change /veh SNX32 (11753110_a_at) / RFU CDHR5 (11726645_a_at) / Fold change /veh CDHR5 (11726645_a_at) / RFU RCAN1 (11760418_a_at) / Fold change /veh RCAN1 (11760418_a_at) / RFU FAM167A (11723789_a_at) / Fold change /veh FAM167A (11723789_a_at) / RFU FAM26E (11764081_at) / Fold change /veh FAM26E (11764081_at) / RFU ISYNA1 (11749810_s_at) / Fold change /veh ISYNA1 (11749810_s_at) / RFU ACY1 (11761880_at) / Fold change /veh ACY1 (11761880_at) / RFU 11764098_at / Fold change /veh 11764098_at / RFU SAMD14 (11745864_x_at) / Fold change /veh SAMD14 (11745864_x_at) / RFU NPB (11741838_a_at) / Fold change /veh NPB (11741838_a_at) / RFU TMPRSS6 (11731388_a_at) / Fold change /veh TMPRSS6 (11731388_a_at) / RFU KRTAP10-2 (11738614_at) / Fold change /veh KRTAP10-2 (11738614_at) / RFU ARHGAP8 /// PRR5-ARHGAP8 (11727945_x_at) / Fold change /veh ARHGAP8 /// PRR5-ARHGAP8 (11727945_x_at) / RFU KRTAP5-7 /// NADSYN1 (11734609_at) / Fold change /veh KRTAP5-7 /// NADSYN1 (11734609_at) / RFU RASL12 (11751679_a_at) / Fold change /veh RASL12 (11751679_a_at) / RFU CDKN2B (11736163_a_at) / Fold change /veh CDKN2B (11736163_a_at) / RFU PRF1 (11729649_at) / Fold change /veh PRF1 (11729649_at) / RFU, ZNF638 /// ZNF638-IT1 / Fold change vs veh, ZNF638 /// ZNF638-IT1 / RFU, PANK3 / Fold change vs veh, PANK3 / RFU, SH3YL1 / Fold change vs veh, SH3YL1 / RFU, ZEB2 / Fold change vs veh, ZEB2 / RFU, NRIP1 / Fold change vs veh, NRIP1 / RFU, PTTG1IP / Fold change vs veh, PTTG1IP / RFU, CAPN2 / Fold change vs veh, CAPN2 / RFU, MED14 / Fold change vs veh, MED14 / RFU, SNORA58 / Fold change vs veh, SNORA58 / RFU, C1orf63 / Fold change vs veh, C1orf63 / RFU, LRRFIP1 / Fold change vs veh, LRRFIP1 / RFU, NDUFAF7 / Fold change vs veh, NDUFAF7 / RFU, SLC12A2 / Fold change vs veh, SLC12A2 / RFU, IBTK / Fold change vs veh, IBTK / RFU, ESF1 / Fold change vs veh, ESF1 / Fold change vs veh, TMEM50B / RFU, TAOK1 / Fold change vs veh, TAOK1 / RFU, ACBD3 / Fold change vs veh, ACBD3 / RFU, TMA16 / Fold change vs veh, TMA16 / RFU, RWDD3 / Fold change vs veh, RWDD3 / RFU, BCAT1 / Fold change vs veh, BCAT1 / RFU, EDEM3 / Fold change vs veh, EDEM3 / RFU, TMEM33 / Fold change vs veh, TMEM33 / RFU, WDR75 / Fold change vs veh, WDR75 / RFU, AHCTF1 / Fold change vs veh, AHCTF1 / RFU, TFRC / Fold change vs veh, TFRC / RFU, ZDHHC17 / Fold change vs veh, ZDHHC17 / RFU, NOM1 / Fold change vs veh, NOM1 / RFU, ARL8B / Fold change vs veh, ARL8B / RFU, ZBTB11 / Fold change vs veh, ZBTB11 / RFU, TAMM41 / Fold change vs veh, TAMM41 / RFU, KIAA1704 /// LOC100996395 / Fold change vs veh, KIAA1704 /// LOC100996395 / RFU, ING1 / Fold change vs veh, ING1 / RFU, TRMT61B / Fold change vs veh, TRMT61B / RFU, FUBP3 / Fold change vs veh, FUBP3 / RFU, TP53 / Fold change vs veh, TP53 / RFU, TNKS2 / Fold change vs veh, TNKS2 / RFU, ZFP14 / Fold change vs veh, ZFP14 / RFU, ACTR2 / Fold change vs veh, ACTR2 / RFU, PPP3R1 / Fold change vs veh, PPP3R1 / RFU, PIK3R1 / Fold change vs veh, PIK3R1 / RFU, HNRNPA1 / Fold change vs veh, HNRNPA1 / RFU, RNF170 / Fold change vs veh, RNF170 / RFU, ZNF28 / Fold change vs veh, ZNF28 / RFU, RNGTT / Fold change vs veh, RNGTT / RFU, OGT / Fold change vs veh, OGT / RFU, BRD1 / Fold change vs veh, BRD1 / RFU, MARS / Fold change vs veh, MARS / RFU, ZNF655 / Fold change vs veh, ZNF655 / RFU, FAHD1 / Fold change vs veh, FAHD1 / RFU, BDP1 / Fold change vs veh, BDP1 / RFU, LRRCC1 / Fold change vs veh, LRRCC1 / RFU, ARID1A / Fold change vs veh, ARID1A / RFU, ZNF146 / Fold change vs veh, ZNF146 / RFU, ZNF330 / Fold change vs veh, ZNF330 / RFU, GPN3 / Fold change vs veh, GPN3 / RFU, C9orf123 / Fold change vs veh, C9orf123 / RFU, N4BP2L2 / Fold change vs veh, N4BP2L2 / RFU, ARFIP1 / Fold change vs veh, ARFIP1 / RFU, FAM179B / Fold change vs veh, FAM179B / RFU, BCL10 / Fold change vs veh, BCL10 / RFU, UHRF1BP1L / Fold change vs veh, UHRF1BP1L / RFU, BET1 / Fold change vs veh, BET1 / RFU, CNOT2 / Fold change vs veh, CNOT2 / RFU, ZNF268 / Fold change vs veh, ZNF268 / Fold change vs veh, ZNF507 / RFU, DGCR2 / Fold change vs veh, DGCR2 / RFU, WDSUB1 / Fold change vs veh, WDSUB1 / Fold change vs veh, HSP90B1 /// MIR3652 / RFU, ADSS / Fold change vs veh, ADSS / RFU, GK / Fold change vs veh, GK / RFU, ZNF148 / Fold change vs veh, ZNF148 / RFU, TAF9 / Fold change vs veh, TAF9 / RFU, SLC1A5 / Fold change vs veh, SLC1A5 / RFU, SLMO2 / Fold change vs veh, SLMO2 / RFU, ABCC4 / Fold change vs veh, ABCC4 / RFU, LOC101060439 /// RAP1B / Fold change vs veh, LOC101060439 /// RAP1B / RFU, RFX7 / Fold change vs veh, RFX7 / RFU, GTPBP10 / Fold change vs veh, GTPBP10 / RFU, CNEP1R1 / Fold change vs veh, CNEP1R1 / RFU, BIVM-ERCC5 /// ERCC5 / Fold change vs veh, BIVM-ERCC5 /// ERCC5 / RFU, ILF3 / Fold change vs veh, ILF3 / RFU 11762660_at / Fold change /veh 11762660_at / RFU VCAN (11757783_s_at) / Fold change /veh VCAN (11757783_s_at) / RFU DDX43 (11728927_at) / Fold change /veh DDX43 (11728927_at) / RFU KRT8 (11758188_x_at) / Fold change /veh KRT8 (11758188_x_at) / RFU NKD1 (11759106_at) / Fold change /veh NKD1 (11759106_at) / RFU SRD5A1 (11742802_a_at) / Fold change /veh SRD5A1 (11742802_a_at) / RFU TPSAB1 /// TPSB2 (11721975_s_at) / Fold change /veh TPSAB1 /// TPSB2 (11721975_s_at) / RFU GSTM3 (11746129_a_at) / Fold change /veh GSTM3 (11746129_a_at) / RFU IL23R (11737362_x_at) / Fold change /veh IL23R (11737362_x_at) / RFU TMEM51 (11727254_a_at) / Fold change /veh TMEM51 (11727254_a_at) / RFU PIWIL2 (11732686_x_at) / Fold change /veh PIWIL2 (11732686_x_at) / RFU ORM1 (11744905_x_at) / Fold change /veh ORM1 (11744905_x_at) / RFU CCDC152 (11743942_at) / Fold change /veh CCDC152 (11743942_at) / RFU ECM1 (11717891_a_at) / Fold change /veh ECM1 (11717891_a_at) / RFU IL23R (11748794_a_at) / Fold change /veh IL23R (11748794_a_at) / RFU TNFAIP8L3 (11732012_x_at) / Fold change /veh TNFAIP8L3 (11732012_x_at) / RFU MBOAT4 (11741988_at) / Fold change /veh MBOAT4 (11741988_at) / RFU 11764193_at / Fold change /veh 11764193_at / RFU TMEM53 (11763286_at) / Fold change /veh TMEM53 (11763286_at) / RFU MAGEB2 (11727129_at) / Fold change /veh MAGEB2 (11727129_at) / RFU TMEM200A (11744735_a_at) / Fold change /veh TMEM200A (11744735_a_at) / RFU CCDC152 (11751479_a_at) / Fold change /veh CCDC152 (11751479_a_at) / RFU FAM211A (11726209_a_at) / Fold change /veh FAM211A (11726209_a_at) / RFU RGS16 (11746705_a_at) / Fold change /veh RGS16 (11746705_a_at) / RFU VCAN (11755009_s_at) / Fold change /veh VCAN (11755009_s_at) / RFU RHOB (11743442_s_at) / Fold change /veh RHOB (11743442_s_at) / RFU RGS16 (11720943_a_at) / Fold change /veh RGS16 (11720943_a_at) / RFU RGS16 (11720944_at) / Fold change /veh RGS16 (11720944_at) / RFU, VPS4B / Fold change vs veh, VPS4B / RFU, CREB1 / Fold change vs veh, CREB1 / RFU, DNAJC13 / Fold change vs veh, DNAJC13 / RFU, GNAQ / Fold change vs veh, GNAQ / RFU, CDK5R1 / Fold change vs veh, CDK5R1 / RFU, ZRANB3 / Fold change vs veh, ZRANB3 / RFU, CUL4A / Fold change vs veh, CUL4A / RFU, CCNY / Fold change vs veh, CCNY / RFU, UFL1 / Fold change vs veh, UFL1 / RFU, COG3 / Fold change vs veh, COG3 / RFU, DIAPH2 / Fold change vs veh, DIAPH2 / RFU, SKA2 / Fold change vs veh, SKA2 / RFU, AFF3 / Fold change vs veh, AFF3 / RFU, LMF1 / Fold change vs veh, LMF1 / RFU, IPO11 / Fold change vs veh, IPO11 / RFU, DFFB / Fold change vs veh, DFFB / RFU, FOXP1 / Fold change vs veh, FOXP1 / RFU, CARD8 / Fold change vs veh, CARD8 / RFU, STRN3 / Fold change vs veh, STRN3 / RFU, ADK / Fold change vs veh, ADK / RFU, RASSF2 / Fold change vs veh, RASSF2 / RFU, WIPF1 / Fold change vs veh, WIPF1 / RFU, LARP1B / Fold change vs veh, LARP1B / RFU, RASA1 / Fold change vs veh, RASA1 / RFU, RB1 / Fold change vs veh, RB1 / RFU, PPFIA1 / Fold change vs veh, PPFIA1 / RFU, MAT2A / Fold change vs veh, MAT2A / RFU, CCT5 / Fold change vs veh, CCT5 / RFU, WDR92 / Fold change vs veh, WDR92 / RFU, CUX1 / Fold change vs veh, CUX1 / RFU, TTC7A / Fold change vs veh, TTC7A / RFU, TMEM135 / Fold change vs veh, TMEM135 / RFU, DEPTOR / Fold change vs veh, DEPTOR / RFU, CPM / Fold change vs veh, CPM / RFU, DNAJB6 / Fold change vs veh, DNAJB6 / RFU, CACNA2D3 / Fold change vs veh, CACNA2D3 / RFU, DTX4 / Fold change vs veh, DTX4 / RFU, TFCP2 / Fold change vs veh, TFCP2 / RFU, GMCL1 /// GMCL1P1 / Fold change vs veh, GMCL1 /// GMCL1P1 / RFU, AEBP2 / Fold change vs veh, AEBP2 / RFU, SNHG1 /// SNORD22 /// SNORD25 /// SNORD26 /// SNORD27 /// SNORD28 /// SNORD29 /// SNORD31 / Fold change vs veh, SNHG1 /// SNORD22 /// SNORD25 /// SNORD26 /// SNORD27 /// SNORD28 /// SNORD29 /// SNORD31 / Fold change (Aza/veh), C12orf56 (ProbeSet 11735607_a_at) / Fold change (ACY-1035/veh), C12orf56 (ProbeSet 11735607_a_at) / Fold change (Aza/veh), FGFR1OP (ProbeSet 11751329_s_at) / Fold change (ACY-1035/veh), FGFR1OP (ProbeSet 11751329_s_at) / Fold change (Aza/veh), VPS36 (ProbeSet 11739960_a_at) / Fold change (ACY-1035/veh), VPS36 (ProbeSet 11739960_a_at) / RFU SYPL1 (11715823_x_at) / Fold change /veh SYPL1 (11715823_x_at) / RFU IGFBP7 (11715501_s_at) / Fold change /veh IGFBP7 (11715501_s_at) / RFU REEP3 (11722064_at) / Fold change /veh REEP3 (11722064_at) / RFU IGLL1 (11728026_x_at) / Fold change /veh IGLL1 (11728026_x_at): dose or concentration left out as unconfirmed
Settings: MV-4-11 cells, 48 hours

Compound: Nc1ccc(-c2cccs2)cc1NC(=O)c1ccc2c(c1)cc(C1CC1)n2CCN1CCOCC1 [ACY-1035]
- RFU SRD5A1 (11742802_a_at): 49.09 RFU
